Laboratory results published in article PMC8899614, “Triterpenoid Saponins From the Fruit of Acanthopanax senticosus (Rupr. & Maxim.) Harms” (Frontiers in Chemistry, 2022).
Like-named read-outs stand apart in the source and are kept apart here.

Legend:
[1] = tested on: NO production in LPS-induced BV2 microglia; assay: NO production inhibition in LPS-induced BV2 microglia (Griess reaction); assay type: cell-based; settings: for IC50: read-out: Inhibitory effects on NO in LPS-induced BV-2 cells, IC50; for Inhibitory effect on neuroinflammation (in words): LPS-induced BV2 microglia neuroinflammation model
Method: The BV2 microglia cells were plated into a 96-well plate. After adding LPS (1 μg/ml) to each well for 12 h, it was treated with or without compounds of various concentrations (0, 100, 200, 300, 400, and 600 μM) for 12 h. The NO production in the supernatant was measured by the Griess reaction. The absorbance at 570 nm was measured using a microplate reader. The NO concentration and the inhibitory rate were calculated through a calibration curve. Quercetin was used as the positive control. Experiments were repeated three times.

BV2 microglia = assay: Cytotoxicity on BV2 microglia by CCK-8 assay; settings: read-out: Cytotoxic activities on BV2 cells, IC50; BV2 cells, 24 h, CCK-8, OD 450 nm, repeated three times
Method: (§1) A drug-containing medium (0, 50, 100, 200, 400, and 600 μM) was added to each well of the administration group, and an equal volume of medium was also added to the blank group, and they were incubate at 37°C and 5% CO2 for 24 h. After the culture, 10 μl of CCK-8 was added to each well and incubated for 1–4 h at 37°C and 5% CO2. The absorbance (OD) value of each well at 450 nm was detected with a microplate reader, repeating three times, and its IC50 value was calculated.

[2] = Cytotoxicity on BV2 microglia by CCK-8 assay; settings: mouse, BV2 microglia cells
Method: as §1

[3] = LPS 1 μg/ml, Griess reaction, n = 3, x ± s, IC50 > 100 μM deemed inactive

Molecule	IC50 [1, 3] [µM]	IC50 ([1]; Mus musculus, BV-2) [µM]	IC50 (BV2 microglia) [µM]	Inhibitory effect on neuroinflammation (in words) [1]	IC50 at 24 h [2] [µM]
3-O-α-arabinopyranosyl-(1→2)-β-glucopyranoside-30-norolean-12,20(29)-dien-28-oic acid [Compound 28]	> 100		565 ± 48		
3-O-β-D-(6′-O-methyl-glucuronopyranosyl) oleanolic acid [Compound 16]			102 ± 9.77	moderate inhibitory effects on neuroinflammation	
3-O-β-D-glucuronopyranosyl-3β,16α-dihydroxyolean-12-en-28-oic acid [Compound 10]			215 ± 20.2	moderate inhibitory effects on neuroinflammation	
3-[(O-β-D-glucopyranosyl-(1→3)-α-L-arabinopyranosyl)oxy]-30- noroleana-12,20(29)-dien-28-oic acid [Compound 29]	> 100		127 ± 10.6		
CCOC(=O)C1OC(OC2CCC3(C)C(CCC4(C)C3CC=C3C5CC(C)(C)CCC5(C(=O)OC5OC(CO)C(O)C(O)C5O)CCC34C)C2(C)CO)C(O)C(O)C1O [Compound 2, 3-O-β-D-6′-ethyl-glucuronopyranosyl-23-hydroxy-olean-12-en-28-β-D-glucopyranosyl]		> 100			157 ± 12.7
COC(=O)C1OC(OC2CCC3(C)C(CCC4(C)C3CCC3C5=CC(C)(C)CCC5(C(=O)O)CCC34C)C2(C)CO)C(O)C(O)C1O [Compound 5, 3β,23-dihydroxyolean-18-en-28-oic acid 3-O-β-D-glucuronopyranoside-6′-O-methyl ester]		< 100		moderate inhibitory effects on neuroinflammation	236 ± 20.2
CC1(C)CC[C@]2(C(=O)O)CC[C@]3(C)C(=CC[C@@H]4[C@@]5(C)CC[C@H](O[C@@H]6OC[C@H](O)[C@H](O)[C@H]6O)[C@@](C)(CO)[C@@H]5CC[C@]43C)[C@@H]2C1 [Compound 7, hederagenin glycosides 3-O-α-L-arabinopyranoside]	> 100		124 ± 10.6		
C[C@@H]1O[C@@H](O[C@H]2[C@H](O[C@H]3CC[C@]4(C)[C@H]5CC=C6[C@@H]7CC(C)(C)CC[C@]7(C(=O)O)CC[C@@]6(C)[C@]5(C)CC[C@H]4C3(C)C)OC[C@H](O)[C@@H]2O)[C@H](O)[C@H](O)[C@H]1O [Compound 18, 3-O-[α-L-rhamnopyranosyl-(1→2)-α-L-arabinopyranosyl] oleanolic acid]	> 100		204 ± 19.8		
CC1(C)CC[C@]2(C(=O)O)CC[C@]3(C)C(=CC[C@@H]4[C@@]5(C)CC[C@H](O[C@@H]6OC[C@H](O)[C@H](O)[C@H]6O[C@@H]6O[C@H](CO)[C@@H](O)[C@H](O)[C@H]6O)C(C)(C)[C@@H]5CC[C@]43C)[C@@H]2C1 [Compound 20, saponin PE]	> 100		136 ± 10.6		
CC1(C)CCC2(C(=O)O)CCC3(C)C(=CCC4C5(C)CCC(OC6OCC(O)C(OC7OC(CO)C(O)C(O)C7O)C6O)C(C)(C)C5CCC43C)C2C1 [Compound 21, oleanolic acid 3-O-β-D-glucopyranosyl (1→3)-α-L-arabinopyranoside]			306 ± 28		
CC1(C)CC[C@]2(C(=O)O)CC[C@]3(C)C(=CC[C@@H]4[C@@]5(C)CC[C@H](O[C@@H]6O[C@H](CO)[C@@H](O)[C@H](O)[C@H]6O[C@@H]6O[C@H](CO)[C@@H](O)[C@H](O)[C@H]6O)C(C)(C)[C@@H]5CC[C@]43C)[C@@H]2C1 [Compound 24, 3-O-β-D-glucopyranosyl-(1→2)-β-D-glucopyranosyl oleanolic acid]	> 100		189 ± 15.2		
CC1OC(OC2C(OC3CCC4(C)C(CCC5(C)C4CC=C4C6CC(C)(C)CCC6(C(=O)OC6OC(CO)C(O)C(O)C6O)CCC45C)C3(C)C)OCC(O)C2O)C(O)C(O)C1O [Compound 26, oleanolic acid 3-O-α-L-rhamnopyranosyl(1→2)-α-L-arabinopyranosyl-28-O-β-D-glucopyranosyl ester]			160 ± 13.5		
HN-saponin D1 [Compound 6]	> 100		108 ± 8.24		
HN-saponin K [Compound 9]	> 100		241 ± 18.6		
elatoside G [Compound 12]			264 ± 22.9	moderate inhibitory effects on neuroinflammation	
hederagenin-3-O-β-D- glucuronopyranoside 6′-O-methyl ester [Compound 13]				moderate inhibitory effects on neuroinflammation	
lucyoside F [Compound 22]	> 100		146 ± 12.7		

Now from value to molecule, other results behind:

IC50 [1, 3] [µM]	IC50 ([1]; Mus musculus, BV-2) [µM]	Molecule	IC50 (BV2 microglia) [µM]	Inhibitory effect on neuroinflammation (in words) [1]	IC50 at 24 h [2] [µM]
> 100		3-O-6′-O-methyl-β-D-glucuronopy-ranoside of gypsogenin [Compound 15]	157 ± 11		
> 100		3-O-α-rhamnopyranose- (1→2)-α-arabinopyranosyl-29-hydroxy-olean-12-en-28-oic acid [Compound 17]	235 ± 21.1		
	> 100	CC1(CO)CCC2(C(=O)O)CCC3(C)C(=CCC4C5(C)CCC(OC6OCC(O)C(OC7OC(CO)C(O)C(O)C7O)C6O)C(C)(C)C5CCC43C)C2C1 (stereo not drawn) [Compound 1, 3-O-β-glucopyranosyl-(1→3)-β-arabinopyranosyl-29-hydroxy-olean-12-en-28-oic acid]			143 ± 10.9
	> 100	CC1OC(OC2C(OC3CCC4(C)C(CCC5(C)C4CC=C4C6CC(C)(O)CCC6(C(=O)O)CCC45C)C3(C)C)OCC(O)C2O)C(O)C(O)C1O [Compound 3, 3β-[(α-L-rhamnopyranosyl-(1→2)-α-L-arabinopyranosyl)oxy]-20α,30-dihydroxy-norolean-12-en-28-oic acid]			150 ± 13.6
	> 100	CC1(C(=O)O)CCC2(C(=O)O)CCC3(C)C(=CCC4C5(C)CCC(OC6OCC(O)C(O)C6OC6OC(CO)C(O)C(O)C6O)C(C)(C)C5CCC43C)C2C1 [Compound 4, 3β-[(O-β-D-glucopyranosyl-(1→2)-α-L-arabinopyranosyl)oxy]olean12-ene-28,29-dioic acid]			246 ± 21.2
> 100		CC1(C)CC[C@]2(C(=O)O)CC[C@]3(C)C(=CC[C@@H]4[C@@]5(C)CC[C@H](O[C@@H]6O[C@H](C(=O)O)[C@@H](O)[C@H](O)[C@H]6O)C(C)(C)[C@@H]5CC[C@]43C)[C@@H]2C1 [Compound 8, oleanolic acid 3-O-β-D-glucuronopyranoside]	107 ± 9.59		
> 100		CC1(C)CC[C@]2(C(=O)O)CC[C@]3(C)C(=CC[C@@H]4[C@@]5(C)CCC(O[C@@H]6O[C@H](C(=O)O)[C@@H](O)[C@H](O)[C@H]6O)[C@@](C)(C=O)[C@@H]5CC[C@]43C)C2C1 (stereo partly shown) [Compound 11, gypsogenin 3-O-glucuronide]	402 ± 39.5		
> 100		CC1(C)CC[C@]2(C(=O)O[C@@H]3O[C@H](CO)[C@@H](O)[C@H](O)[C@H]3O)CC[C@]3(C)C(=CC[C@@H]4[C@@]5(C)CC[C@H](O[C@@H]6OC[C@H](O)[C@H](O)[C@H]6O)[C@@](C)(CO)[C@@H]5CC[C@]43C)[C@@H]2C1 [Compound 19, HN-saponin F]	466 ± 35.1		
	10.5 ± 1.07	O=c1c(O)c(-c2ccc(O)c(O)c2)oc2cc(O)cc(O)c12 [Quercetin, reference compound]			
> 100		lucyoside H [Compound 23]	131 ± 10		
> 100		paritriside E [Compound 27]	133 ± 11.8		
> 100		tragopogonsaponin A methyl ester [Compound 14]	585 ± 45.6		
